This is an account of results in article PMC12062876, “Efficient constitution of a library of rotenoid analogs active against Trypanosoma cruzi from a digitalized plant extract collection” (RSC Advances, 2025).

Like-named read-outs stand apart in the source and are kept apart here.

Series [1] deals with L6 cells (rat skeletal myoblast). The conditions noted are these: commercial standards; cited from earlier work.
Another series concerns Haemonchus contortus. The conditions noted are these: cited from earlier work.
In series [2] the test system is T. cruzi amastigotes. The conditions noted are these: commercial standards; cited from earlier work.
The test system of series [3] is T. cruzi amastigotes. The series is described as follows: Activity against intracellular T. cruzi amastigotes. Type of series: cell-based, Trypanosoma cruzi. The conditions noted are these: for Selectivity index: SI = IC50 cytotoxicity/IC50 against T. cruzi; for IC50: read-out: IC50 T. cruzi amastigotes. From the text: The bioactivity of isolated compounds against intracellular T. cruzi amastigotes grown in rat L6 […] is presented in Table 1. […] Rotenone and deguelin are known to be strong mitochondrial complex I (also known as NADH:ubiquinone oxidoreductase) inhibitors,[43–45] while different activities between closely related rotenoids (rotenone, 5′-α-epirotenone, and 5′-β-epirotenone) has already been shown. […] The variation in activity observed on our rapidly generated series of structural analogs points in the same direction. As shown in Fig. 3 and Table 1, the cyclic and bent form of the rotenoid at the B/C ring junction is essential for activity, since compounds 40 and 41 were not active.
The pure compounds activity was assessed against T. cruzi amastigotes as described in ref. [27].

A short description of series [4]: Cytotoxicity assay: L-6 cells. The conditions noted are these: rat skeletal myoblast (L6 cells); means of two independent assays. In kind it is cell-based. As for the experimental part:
(§1) The pure compounds cytotoxicity was assessed against L6 cells as described in ref. [27].

The test system of series [5] is L6 cells (rat skeletal myoblast). As to the kind of experiment: Cytotoxicity assay: L-6 cells. Type of series: cell-based. The conditions noted are these: means of two independent assays. As to the method:
as §1

[6] abbreviates: Trypanosoma cruzi, intracellular amastigotes grown in rat L6 cells, means of two independent assays.

What is called IC50 is the concentration at which inhibition is half-maximal. With `COc1cc2c(cc1OC)[C@@H]1C(=O)c3ccc4c(c3O[C@@H]1CO2)C=CC(C)(C)O4` [Compound 39, deguelin], the “toxicity to the host cell” value in series [1] is given as “without toxicity”. The nematocidal activity result in the series with Haemonchus contortus is on record as “potent nematocidal activity”. The “IC50 against the amastigote form of the parasite” value in the series on T. cruzi amastigotes [2] is “nanomolar”. For the same compound, the Selectivity index in the series with T. cruzi amastigotes [3] amounted to 1148.5. Moreover, the IC50 in the series with T. cruzi amastigotes [3] (setting [6]) stood at 0.02 µM; in series [4] it was 19.4 µM.
With medicarpin [Compound 15], the IC50 in the series with T. cruzi amastigotes [3] (intracellular amastigotes grown in rat L6 cells, means of two independent assays) is 202 µM; in series [5], 226 µM.
Turning to `CC1(C)C=Cc2c(ccc(-c3coc4cc(O)c(O)cc4c3=O)c2O)O1` [Compound 21, 5′,6,7-trihydroxy-2′,2′-dimethyl-2′H,4H-[3,6′-bichromen]-4-one], the Selectivity index in the series on T. cruzi amastigotes [3] was determined as 1.4. The half-inhibitory concentration (IC50) amounted to 56.8 µM in the series with T. cruzi amastigotes [3] (setting [6]) and 76.6 µM in series [4].
For `C=C(C)[C@H]1Cc2c(ccc3c2O[C@@H]2COc4cc(OC)c(OC)cc4[C@@H]2C3=O)O1` [Compound 37, rotenone], the “toxicity to the host cell” value in series [1] is on record as “without toxicity”. In addition, the nematocidal activity result with Haemonchus contortus is on record as “potent nematocidal activity”. In the series with T. cruzi amastigotes [2], the “IC50 against the amastigote form of the parasite” value is recorded as “nanomolar”. This compound also gave a Selectivity index in the series on T. cruzi amastigotes [3] of 51.7. Further, the IC50 in the series on T. cruzi amastigotes [3] (Trypanosoma cruzi, L6, in Rattus norvegicus) is 0.01 µM; in series [4], 0.48 µM.
For `CC(=O)OC(C1COc2ccc3c(c21)OC(c1ccc(O)cc1)CC3=O)C(C)(C)O` (centres unmarked) [Compound 12, 2-hydroxy-1-(2-(4-hydroxyphenyl)-4-oxo-3,4,8,9-tetrahydro-2H-furo[2,3-h]chromen-9-yl)-2-methylpropyl acetate], in the series on T. cruzi amastigotes [3], the Selectivity index was 1.7. The IC50 in the series with T. cruzi amastigotes [3] (setting [6]) was 58.8 µM; in series [4], 99.4 µM.
